One series concerns Rspo3 fusion tumors. Kind of series: Subcutaneous Rspo3 fusion organoid tumors in nude mice. The class given is in vivo, mouse. The note with it: single dose of asparaginase. The method, then: (§1) For implantation of APC mutant human CRC PDX, patient tumor material was collected in PBS and kept on wet ice for engraftment within 24 h after resection. Upon arrival, necrotic and supporting tissues were carefully removed using a surgical blade. Approximately 1 mm×1 mm tissue fragments were implanted subcutaneously into the flank region of male nude mice, as described (Bullman et al., 2017). For injection of intestinal organoids (Rspo3; p53; Kras, or Apc; p53; Kras), per mouse one full […] well of organoids was injected subcutaneously.
(§2) As soon as tumors reached a volume of approximately 150 mm3, treatment of mice was begun. For the APC mutant human CRC PDX, a single dose of asparaginase (1,000 U/kg) or PBS was injected by tail vein injection on day 1 of treatment, and BRD0705 (15 mg/kg) or vehicle was given every 12 hours for 21 days by oral gavage. Vehicle was formulated as previously described (Wagner et al., 2018).
(§3) After start of treatment, body weight and tumor size were evaluated every other day. Tumor size was assessed by caliper measurements and the approximate volume of the mass was calculated using the formula (l×w×w)×(π/6), where 1 is the major tumor axis and w is the minor tumor axis.

For series [1], the system named is asparaginase-resistant T-ALL patient-derived xenograft. Kind of series: T-ALL patient-derived xenograft in NRG mice, survival. The series is classed as in vivo, mouse. The method, then:
Mice were exposed to a sub-lethal dose of radiation (4.5 Gy) and subsequently injected with human leukemia cells. All injections were performed by tail vein injection. Blood collections were performed to monitor leukemia onset in mice injected with leukemic cells, which was assessed by staining for human CD45 expression using anti-human CD45-PE-Cy7 (1:400, BD #560915) antibody staining. As soon as leukemia engraftment was confirmed based on ≥5% human leukemia cells in the peripheral blood, treatment of mice was begun. Asparaginase (1,000 U/kg) or PBS were injected by tail vein injection as a single dose on day 1 of drug treatment, and BRD0705 (15 mg/kg) or vehicle were given every 12 hours for 12 days by oral gavage. Vehicle was formulated as previously described.^15 Mice were anesthetized with isoflurane (Patterson Veterinary, Greeley, CO) prior to gavage. After start of treatment, body weight was monitored every third day. To assess bilirubin levels, mandibular blood vein collection was performed, and bilirubin levels were measured in the Boston Children's Hospital clinical laboratory. The primary endpoint of this experiment was survival. Mice were euthanized as soon as they developed weight loss greater than 15% or signs/symptoms of progressing disease. Post-mortem analysis of leukemic burden was performed by extracting bone marrow cells, which were filtered through a […] mesh filter and red blood cells were lysed using the BD Biosciences Red Blood Cell Lysis reagent (BD #555899). Isolated bone marrow cells were stained for assessment of leukemic burden using following antibodies from BD Biosciences: Anti-human CD4-APC-Cy7 (1:100, BD #561839) and anti-human CD8-PerCP-Cy5.5 (1:100, BD #560662).
In general terms: A xenograft is tissue or cells of one species grown in another, often human tumour cells in immunodeficient mice.

The test system of series [2] is APC-mutant CRC patient-derived xenograft. Kind of series: APC-mutant human CRC patient-derived xenograft in nude mice. The series is classed as in vivo, mouse. Particulars: asparaginase 1000 U/kg×1 dose; BRD0705 every 12 hours×21 days. As to the method:
as §1
As soon as tumors reached a volume of approximately 150 mm3, treatment of mice was begun. […] Vehicle was formulated as previously described (Wagner et al., 2018).
as §3

A further series has as its system CRC. The note with it: Clarkson 1970; Ohnuma 1970; Wilson 1975; cited from earlier work.
Series [3] concerns CCRF-CEM cells. Kind of series: Viable cell counts (trypan blue) of CCRF-CEM cells treated with asparaginase and other agents. The class given is cell-based, human. As to the method:
Cells (25,000 per well) were seeded in 100 μl of complete growth medium in 96-well plates and incubated with chemotherapeutic agents or vehicle. T-ALL cells were split every 48 hours in a 1:5 ratio. Briefly, 20 μl of cells were mixed with 80 μl fresh culture medium, supplemented with vehicle or chemotherapeutic drugs at the indicated doses. AML cells were split every 72 hours as described above. Cell viability was assessed by counting viable cells based on trypan blue vital dye staining (Invitrogen), according to the manufacturer's instructions. Chemotherapeutic drugs included: PEG-asparaginase (“oncaspar”, Shire, Lexington, MA), dexamethasone (Sigma-Aldrich), vincristine (Selleckchem, Houston, TX), doxorubicin (Sigma-Aldrich), 6-mercaptopurine (Abcam, Cambridge, UK), CHIR99021 (Selleckchem), bortezomib (Selleckchem), rapamycin (Selleckchem), RAD001 (Selleckchem), AZD2014 (Selleckchem), and Wnt3A (R&D systems, Minneapolis, MN). BRD0705 and […] were synthesized as described^15. Caspase 3/7 activity was assessed using the Caspase Glo 3/7 Assay (Promega, Madison, WI) according to the manufacturer's instructions.

A further series relates to Rspo3 fusion organoids. Kind of series: Chemotherapy response in mouse intestinal organoids, Rspo3 fusion. The class given is cell-based. Particulars: asparaginase 100 U/L, 10 days. The method, then: (§4) For assessment of chemotherapy response in mouse intestinal organoids, Apc-deficient and Rspo3 fusion organoids were cultured in basal organoid medium (medium not containing murine Wnt3A, murine Noggin and human R-spondin1 protein). A full 0.95 cm2 well of organoids was split into new wells, aiming to obtain approximately 25 organoids per well. Organoids were split according to previously published protocols (O'Rourke et al., 2016). Matrigel and basal organoid culture medium were supplemented with vehicle or chemotherapeutic agents, and split every 48 hours. After 10 days in culture, total organoid numbers per wells were counted by light microscopy. Microscopy was performed using an 100× objective on an Axio Imager A1 microscope (Zeiss, Oberkochen, Germany), with images captured using a CV-A10 digital camera (Jai, Yokohama, Japan) and Cytovision software (Leica Biosystems, Wetzlar, Germany).
(§5) Organoids touching the edge of a well were excluded from counting. Images were taken from a representative of three independent experiments and analyzed with ImageJ Software (Schneider et al., 2012).

For a further series, the system named is SW-480 cells. Kind of series: Chemotherapy response of colon cancer cell lines (trypan blue counts), SW-480. The series is classed as cell-based, human. Particulars: 10 days. As to the method: (§6) Cells (100,000 per well) were seeded in […] of complete growth medium in 12-well plates and incubated with chemotherapeutic agents or vehicle. Cells were split every 48 hours and cell viability was assessed by counting viable cells based on trypan blue vital dye staining (Invitrogen), according to the manufacturer's instructions. Chemotherapeutic drugs included: asparaginase (pegaspargase, Shire, Lexington, MA), CHIR99021 (Selleckchem), recombinant human Wnt3A protein (R&D systems, Minneapolis, MN) and recombinant human R-Spondin 3 protein (R&D systems, Minneapolis, MN). BRD0705 and BRD3731 were synthesized as described (Wagner et al., 2018). Caspase 3/7 activity was assessed using the Caspase Glo 3/7 Assay (Promega, Madison, WI) according to the manufacturer's instructions.

The subject of series [4] is HCT-15 cells. Kind of series: Chemotherapy response of colon cancer cell lines (trypan blue counts), HCT-15. The series is classed as cell-based, human. Particulars: 10 days. The method, then:
as §6

The test system of a further series is Apc-deficient tumors. Kind of series: Subcutaneous Apc-deficient organoid tumors in nude mice. The class given is in vivo, mouse. The note with it: single dose of asparaginase. The method, then:
as §1, §2, §3

A short description of series [5]: Body weight of nude mice injected with organoids. The class given is in vivo. Particulars: single dose of asparaginase, FIG. 19A. As to the method:
as §3

Series [6] concerns CCRF-CEM cells. As to the kind of experiment: Assessment of cell size by flow cytometry (FSC-H), CCRF-CEM. The series is classed as cell-based, human. The note with it: asparaginase 10 U/L, 48 hours. The method, then: Assessment of cell size. Cells (400,000 per well) were plated in 1 ml of complete growth medium, containing a final concentration of 10 U/L asparaginase in a 24-well format. After 48 hours of treatment, forward scattering (FSC-H) was assessed by flow cytometry.
On the technique in general: Flow cytometry measures light scatter and fluorescence of single cells or particles in a stream.

In the next series the test system is Apc-deficient organoids. As to the kind of experiment: Chemotherapy response in mouse intestinal organoids, Apc-deficient. The note with it: asparaginase 100 U/L, BRD0705 1 μM or both, 10 days. The series is classed as cell-based. As to the method: as §4, §5
Series [7] concerns HCT-15 cells. Kind of series: Assessment of cell size by flow cytometry (FSC-H), HCT-15. The series is classed as cell-based, human. Particulars: asparaginase 100 U/L (FIG. 18A). The method, then: […] After 48 hours of treatment, forward scatter height (FSC-H) was assessed by flow cytometry on a Beckton-Dickinson LSR-II instrument.

Turning to asparaginase, in the series on Rspo3 fusion tumors, the therapeutic activity result is “significant therapeutic activity”. Moreover, the “disease progression (tumor volume)” value in the series on Rspo3 fusion tumors (FIG. 16B) was “markedly delayed disease progression”. In addition, in the series with Rspo3 fusion tumors (FIG. 16C), the tumor regression result is “induced tumor regression in most treated mice”. Further, in the series with Rspo3 fusion tumors (FIG. 16D), the progression-free survival result is “prolonged progression-free survival”. Moreover, in series [1] (FIG. 4D, Kaplan-Meier), the “difference in survival between vehicle and monotherapy groups (log-rank)” value is “not significant”. For the same substance, the “efficacy against xenograft (survival)” value in [1] (asparaginase 1,000 U/kg i.v. single dose, BRD0705 15 mg/kg oral gavage every 12 hours for 12 days) is given as “highly resistant”. Besides, the “activity on tumor growth” value in series [2] is “no activity”. Besides, the “activity in unselected patients with CRC” value in the series on CRC is “little activity”. Further, the toxicity of asparaginase result in the series with CCRF-CEM cells [3] (10 U/L dose) was “lacked detectable toxicity”. The “asparaginase sensitivity of the cell line (viability)” value with CCRF-CEM cells [3] (FIG. 5: 100 U/L asparaginase, 48 hours) is listed as “asparaginase-resistant”. Besides, the “toxicity to organoids (viable organoid count)” value in the series on Rspo3 fusion organoids is “highly toxic”; in the series on Apc-deficient organoids it was “little activity”. The “response to asparaginase monotherapy” value in the series with SW-480 cells and in the series on HCT-15 cells [4] was “refractory” throughout. In addition, the effect on tumors result in the series with Apc-deficient tumors was “little effect”. Moreover, the weight loss entry in series [5] is on record as “without inducing appreciable weight loss”. Further, the “cell size (FSC-H)” value in the series on CCRF-CEM cells [6] is “measurable decrease in cell size”; in the series with HCT-15 cells [7], “significantly decreased cell size”.

The values above are taken from patent publication US20260151467A1, “METHOD FOR TREATING CANCER” (THE CHILDREN'S MEDICAL CENTER CORPORATION, priority 2018, published 2026).
